Measured values taken from paper PMC4861267 (PLoS ONE, 2016).
Where two headings read alike, the source gives them in different places.

Experiments:
histamine H2 receptor [1] = target: T1, histamine H2 receptor (Rattus norvegicus, UniProt P25102); test: Competition binding assay (displacement of ^3H-tiotidine)
T1 construct: endogenous in cells
Description: (§1) All test animals were used in accordance with the National Institutes of Health Guidelines for the Care and Use of Laboratory Animals and Permission for Use of Laboratory Animals 34401-1/2010/8 and U34401-12/2013/3 issued by the Administration of the Republic of Slovenia for Food Safety, Veterinary and Plant Protection to prepare primary astrocytes cultures from newborn not-treated rat. 3 day old rats were sacrificed by decapitation, followed by removing the brain cortices. Primary cultures of astrocytes were prepared and cultured as previously described. Cells were grown in high-glucose Dulbecco's modified Eagle's medium (DMEM), containing 10% fetal bovine serum (FBS), 1 mM pyruvate, 2 mM glutamine, and 25 μg/ml gentamycin in 95% air-5% CO2. Confluent cultures were shaken at 225 rpm overnight and the medium was changed the next morning; this was repeated a total of three times. After the third overnight shaking, the cells were trypsinized and cultured for 24 h in 10 μM cytosine arabinoside. After reaching confluence again the cells were subcultured into 12-well clusters and grown until becoming confluent again. The confluent cells were detached, washed twice in PBS, and cell sediment was stored at –70°C until used for the binding assay.
In the competition binding experiments, astrocyte cells were incubated together in the presence of different histaminergic ligands in the concentration range from 0.01 nM– 100 μM under the same incubation conditions as above. The concentration of ^3H-tiotidine used was 5 nM. The binding reaction was rapidly terminated and the bound ligand was separated from the unbound by vacuum filtration. The radioactivity trapped on the GF/C glass fiber filters was counted in a liquid scintillation counter (Microbeta, Perkin Elmer, USA).
(§2) The binding experiments were routinely carried out in triplicate and each experiment was repeated at least twice. The results are expressed as means ± SEM. The binding parameters (KD, Bmax, and IC50) were calculated by a non-linear regression method using software Prism6 version 6.00, GraphPad Software Inc. (San Diego, USA). A comparison of the data among the groups was carried out using Student`s unpaired t-test with Welch correction, where two groups of data were compared. Differences were considered significant at p < 0.05.

histamine H2 receptor [2] = target: T1, histamine H2 receptor; test: ^3H-tiotidine saturation binding assay; settings: cultured neonatal rat astrocytes; for Kd: read-out: equilibrium dissociation constant (KD)
Description: as §1
0.1 mg of astrocyte cell protein was incubated for 15 minutes at 25°C in 0.15M Na^+/K^+ -phosphate buffer (pH 7.4) or in 0.15M Na^+/K^+ -phosphate buffer made using D2O instead of miliQ water (pH 7.4) in a total volume of 0.25 mL with the indicated concentrations of ^3H-tiotidine (1–15 nM), with a specific activity of 82.2 Ci/mmol. Specific binding represented the difference between total and non-specific binding (binding in the presence of 1 μM cimetidine).
as §2

[3] = MP2/6–31++G(2d,2p) and Langevin dipole calculated value; cited from earlier work
[4] = regular phosphate buffer (control)

T1 sequence (P25102 whole entry): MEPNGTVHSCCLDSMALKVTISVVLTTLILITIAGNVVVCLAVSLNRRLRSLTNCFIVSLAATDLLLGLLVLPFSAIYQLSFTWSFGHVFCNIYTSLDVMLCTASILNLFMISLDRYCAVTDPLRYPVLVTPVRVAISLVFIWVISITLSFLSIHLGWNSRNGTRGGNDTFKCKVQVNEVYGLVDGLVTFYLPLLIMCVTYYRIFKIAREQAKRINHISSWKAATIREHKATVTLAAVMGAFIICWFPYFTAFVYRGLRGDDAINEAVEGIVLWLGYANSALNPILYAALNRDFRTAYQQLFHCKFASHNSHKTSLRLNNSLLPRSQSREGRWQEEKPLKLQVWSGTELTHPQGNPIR

`Cc1ncc(CCN)[nH]1` [2-methylhistamine] gave an IC50 (histamine H2 receptor [1]) of 4.17 nM.
For `CN=C(NC#N)NCCSCc1csc(N=C(N)N)n1` [^3H-tiotidine], the “maximal binding capacity (Bmax)” value (histamine H2 receptor [2]; deuterated medium (D2O)) was 17.1 ± 2.7 fmol/mg protein, the Kd (histamine H2 receptor [2]; deuterated medium (D2O)) was 7.4 ± 2.4 nM and the “maximal binding capacity (Bmax)” value (histamine H2 receptor [2]; [4]) was 18.6 ± 1.7 fmol/mg protein. For the same compound, the Kd (histamine H2 receptor [2]; [4]) was 4.7 ± 1 nM.
For `[2H]N([2H])CCc1cn([2H])cn1` [deuterated histamine], the binding free energy (histamine H2 receptor [1]; deuterated (D), from measured value 16 nM) was “–10.59 kcal/mol”.
For `NCCc1c[nH]cn1` [histamine], the binding free energy (histamine H2 receptor [1]; control (H), from measured value 56 nM) was “–9.86 kcal/mol”, the IC50 (histamine H2 receptor [1]; control (H), read-out: reported measured value (ligand binding constant)) was 56 nM and the “ΔEINTER(exp) ΔΔE(H2O–D2O); experimental difference in binding free energy upon deuteration” value (histamine H2 receptor [1]; ΔGBIND(H→D) = −RT ln(KD/KH)) was 0.73 kcal mol^–1. The hydration free energy [3] was “–68.6 kcal mol^–1”.
Work on `NCCc1c[nH]cn1` [deuterated histamine] yielded an IC50 (histamine H2 receptor [1]; deuterated (D), read-out: reported measured value (ligand binding constant)) of 16 nM.
